Source: ChEMBL document CHEMBL1667837, “Structure and property based design, synthesis and biological evaluation of γ-lactam based HDAC inhibitors” (Bioorg Med Chem Lett, 2011)
pIC50: −log10 of the molar value. Values belong to the molecule of their own block, whether it stands above or below them.

Legend:
[1] = Inhibition of HDAC by fluorescence assay
[2] = test system: ACHN; assay: Cytotoxicity against human ACHN cells; type: functional
[3] = test system: MDA-MB-231; assay: Cytotoxicity against human MDA-MB-231 cells; type: functional
[4] = test system: PC-3; assay: Cytotoxicity against human PC3 cells; type: functional
[5] = Half life in BALB/c mouse at 20 mg/kg, po; type: ADME, organism-based; parameters: dose 20 mg/kg, route oral; settings: in vivo
[6] = molecular target: Histone deacetylase 3 (Homo sapiens, UniProt O15379)
Histone deacetylase 3, sequence (O15379 whole entry): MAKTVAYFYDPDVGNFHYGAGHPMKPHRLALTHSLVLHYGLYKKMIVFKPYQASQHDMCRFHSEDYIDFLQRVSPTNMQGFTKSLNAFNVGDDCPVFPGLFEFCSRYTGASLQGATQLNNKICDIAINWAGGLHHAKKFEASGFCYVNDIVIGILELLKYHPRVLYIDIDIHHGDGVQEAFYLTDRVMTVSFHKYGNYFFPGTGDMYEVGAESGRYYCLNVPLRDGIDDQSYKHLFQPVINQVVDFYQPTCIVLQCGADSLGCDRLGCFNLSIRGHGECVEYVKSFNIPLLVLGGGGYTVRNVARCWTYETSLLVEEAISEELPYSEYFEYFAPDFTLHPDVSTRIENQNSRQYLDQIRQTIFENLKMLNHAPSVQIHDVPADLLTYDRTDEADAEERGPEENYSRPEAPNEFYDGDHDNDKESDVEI

[7] = Oral bioavailability in BALB/c mouse at 20 mg/kg; type: ADME, organism-based; settings: in vivo
[8] = Half life in BALB/c mouse at 5 mg/kg, iv; type: ADME, organism-based; parameters: dose 5 mg/kg, route intravenous; settings: in vivo
[9] = Apparent permeability across human Caco2 cells; type: ADME, cell-based; settings: Caco-2
[10] = test system: HCT-15; assay: Cytotoxicity against human HCT15 cells; type: functional
[11] = Volume of distribution at steady state in BALB/c mouse at 5 mg/kg, iv; type: ADME, organism-based; parameters: dose 5 mg/kg, route intravenous; settings: in vivo, read-out: Vdss
[12] = AUC (0 to 5 hrs) in BALB/c mouse at 20 mg/kg, po; type: ADME, organism-based; parameters: time < 4 hr, dose 20 mg/kg, route oral; settings: plasma
[13] = molecular target: Histone deacetylase 2 (Homo sapiens, UniProt Q92769); assay: Inhibition of HDAC2 by fluorescence assay
Histone deacetylase 2, sequence (Q92769 whole entry): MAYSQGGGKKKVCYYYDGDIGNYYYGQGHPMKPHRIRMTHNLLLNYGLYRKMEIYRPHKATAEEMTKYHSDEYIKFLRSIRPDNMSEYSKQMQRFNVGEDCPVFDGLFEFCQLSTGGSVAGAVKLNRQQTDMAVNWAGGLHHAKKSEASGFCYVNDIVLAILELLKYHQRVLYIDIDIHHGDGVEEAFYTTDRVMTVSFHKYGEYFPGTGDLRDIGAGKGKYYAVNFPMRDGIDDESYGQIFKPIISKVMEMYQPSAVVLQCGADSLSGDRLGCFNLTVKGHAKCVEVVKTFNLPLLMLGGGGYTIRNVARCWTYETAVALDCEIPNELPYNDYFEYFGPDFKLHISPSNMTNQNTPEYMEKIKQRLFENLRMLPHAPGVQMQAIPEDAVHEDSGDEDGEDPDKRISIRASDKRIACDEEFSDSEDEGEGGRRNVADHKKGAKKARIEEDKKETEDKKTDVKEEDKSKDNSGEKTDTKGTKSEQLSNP

[14] = molecular target: T1, Histone deacetylase 8 (Homo sapiens, UniProt Q9BY41); assay: Inhibition of HDAC8 by fluorescence assay
T1 sequence (Q9BY41 whole entry): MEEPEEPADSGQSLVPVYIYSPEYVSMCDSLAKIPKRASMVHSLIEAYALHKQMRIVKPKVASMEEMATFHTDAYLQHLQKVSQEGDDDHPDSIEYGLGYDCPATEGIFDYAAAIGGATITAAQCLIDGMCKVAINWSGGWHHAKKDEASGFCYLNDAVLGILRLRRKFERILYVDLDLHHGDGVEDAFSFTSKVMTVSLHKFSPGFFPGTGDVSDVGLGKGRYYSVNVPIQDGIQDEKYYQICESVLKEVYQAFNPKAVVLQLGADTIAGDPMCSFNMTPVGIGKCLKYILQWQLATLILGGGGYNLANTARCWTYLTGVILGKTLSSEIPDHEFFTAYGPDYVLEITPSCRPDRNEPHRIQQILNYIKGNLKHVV

[15] = Metabolic stability in ICR mouse liver microsomes assessed as compound remaining at 1 uM after 60 mins in absence of NADPH; type: ADME, Microsome; settings: read-out: Stability
[16] = test system: HCT-116; assay: Antitumor activity against human HCT116 cells xenografted in nude mouse assessed as inhibition of tumor growth at 30 mg/kg, ip for 20 days relative to control; type: functional; parameters: scale not given: the % may be the effect or the level left; settings: route intraperitoneal
[17] = Metabolic stability in ICR mouse liver microsomes assessed as compound remaining at 1 uM after 60 mins in presence of buffer; type: ADME, Microsome; settings: read-out: Stability
[18] = Metabolic stability in ICR mouse liver microsomes assessed as compound remaining at 1 uM after 60 mins in presence of NADPH; type: ADME, Microsome; settings: read-out: Stability
[19] = test system: NCI-H23; assay: Cytotoxicity against human NCI-H23 cells; type: functional
[20] = test system: Mus musculus; assay: Toxicity in human HCT116 cells xenografted nude mouse assessed as change in body weight at 30 mg/kg, ip for 20 days; type: organism-based, HCT-116; parameters: dose 30 mg/kg, route intraperitoneal; settings: in vivo, 480 h
[21] = test system: LOX IMVI; assay: Cytotoxicity against human LOXIMVI cells; type: functional
[22] = Tmax in BALB/c mouse at 20 mg/kg, po; type: ADME, organism-based; parameters: dose 20 mg/kg, route oral; settings: in vivo
[23] = Clearance in BALB/c mouse at 5 mg/kg, iv; type: ADME, organism-based; parameters: dose 5 mg/kg, route intravenous; settings: in vivo
[24] = test system: HCT-116; assay: Antitumor activity against human HCT116 cells xenografted in nude mouse assessed as reduction of tumor volume at 30 mg/kg, ip for 20 days (reference value: 369.8 mm'3); type: functional; settings: route intraperitoneal
[25] = Cmax in BALB/c mouse at 20 mg/kg, po; type: ADME, organism-based; parameters: dose 20 mg/kg, route oral; settings: in vivo
[26] = molecular target: Histone deacetylase 1 (Homo sapiens, UniProt Q13547); assay: Inhibition of HDAC1 by fluorescence assay
Histone deacetylase 1, sequence (Q13547 whole entry): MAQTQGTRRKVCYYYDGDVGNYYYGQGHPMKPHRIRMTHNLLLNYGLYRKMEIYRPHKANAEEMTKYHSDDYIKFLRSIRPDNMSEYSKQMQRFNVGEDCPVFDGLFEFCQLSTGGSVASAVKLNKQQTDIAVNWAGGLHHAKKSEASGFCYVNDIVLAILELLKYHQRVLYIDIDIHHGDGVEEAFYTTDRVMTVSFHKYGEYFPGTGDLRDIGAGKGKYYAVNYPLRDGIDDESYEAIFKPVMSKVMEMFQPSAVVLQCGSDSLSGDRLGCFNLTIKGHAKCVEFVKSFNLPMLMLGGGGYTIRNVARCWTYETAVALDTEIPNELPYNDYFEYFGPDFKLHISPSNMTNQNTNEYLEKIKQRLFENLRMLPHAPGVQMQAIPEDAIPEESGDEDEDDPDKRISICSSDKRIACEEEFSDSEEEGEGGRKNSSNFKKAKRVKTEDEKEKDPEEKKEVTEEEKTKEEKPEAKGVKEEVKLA

[27] = AUC (0 to infinity) in BALB/c mouse at 5 mg/kg, iv; type: ADME, organism-based; parameters: time infinity, dose 5 mg/kg, route intravenous; settings: plasma
[28] = test system: NUGC-3; assay: Cytotoxicity against human NUGC3 cells; type: functional
[29] = Inhibition of HDAC assessed as increase of histone H4 acetylation
[30] = molecular target: T2, Protein deacetylase HDAC6 (Homo sapiens, UniProt Q9UBN7)
T2 sequence (Q9UBN7 whole entry): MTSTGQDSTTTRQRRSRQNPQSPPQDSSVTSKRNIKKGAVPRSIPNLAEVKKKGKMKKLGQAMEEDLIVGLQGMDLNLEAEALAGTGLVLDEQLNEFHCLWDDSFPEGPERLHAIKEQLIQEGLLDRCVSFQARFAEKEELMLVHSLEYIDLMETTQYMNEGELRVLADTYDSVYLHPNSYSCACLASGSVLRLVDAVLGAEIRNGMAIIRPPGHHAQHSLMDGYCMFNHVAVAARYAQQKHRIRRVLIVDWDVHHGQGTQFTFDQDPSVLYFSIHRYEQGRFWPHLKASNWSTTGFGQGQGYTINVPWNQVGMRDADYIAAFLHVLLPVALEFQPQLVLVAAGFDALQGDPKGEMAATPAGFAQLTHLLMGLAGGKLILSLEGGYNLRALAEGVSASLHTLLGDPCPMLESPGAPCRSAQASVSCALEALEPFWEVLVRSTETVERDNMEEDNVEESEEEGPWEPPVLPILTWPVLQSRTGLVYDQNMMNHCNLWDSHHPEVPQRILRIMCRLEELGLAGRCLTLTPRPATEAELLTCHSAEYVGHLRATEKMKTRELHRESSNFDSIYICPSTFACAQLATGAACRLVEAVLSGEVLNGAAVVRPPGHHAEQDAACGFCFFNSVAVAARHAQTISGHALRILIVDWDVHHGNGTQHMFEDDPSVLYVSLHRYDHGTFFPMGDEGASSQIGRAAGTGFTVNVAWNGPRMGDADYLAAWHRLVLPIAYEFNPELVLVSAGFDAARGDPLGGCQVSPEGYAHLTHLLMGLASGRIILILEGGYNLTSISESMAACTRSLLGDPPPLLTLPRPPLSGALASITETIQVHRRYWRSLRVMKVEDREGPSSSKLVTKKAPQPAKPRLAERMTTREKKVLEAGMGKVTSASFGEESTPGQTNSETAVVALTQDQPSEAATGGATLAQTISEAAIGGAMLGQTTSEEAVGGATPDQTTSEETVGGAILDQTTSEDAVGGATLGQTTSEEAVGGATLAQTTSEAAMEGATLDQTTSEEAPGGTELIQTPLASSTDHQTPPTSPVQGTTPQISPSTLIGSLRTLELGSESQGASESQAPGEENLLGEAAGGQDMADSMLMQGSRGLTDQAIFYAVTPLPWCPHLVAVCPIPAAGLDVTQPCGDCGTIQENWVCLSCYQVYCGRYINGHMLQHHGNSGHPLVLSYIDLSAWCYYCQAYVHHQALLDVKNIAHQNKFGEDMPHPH

[31] = Inhibition of HDAC assessed as increase of histone H3 acetylation

pIC50 [1]: 6.85
Compound: O=C(CCC1=CCCN(CCCc2ccc3ccccc3c2)C1=O)NO
GI50 [2]: 5.78 µM
GI50 [3]: 4.7 µM
GI50 [4]: 3.77 µM

pIC50 [1]: 8.00
half-life [5]: 38.4 min
pIC50 [6]: 4.10
bioavailability [7]: 8.7%
half-life [8]: 9 min
Papp [9]: 16.3 ×10⁻⁶ cm/s
Vd [11]: 0.85 L/kg
AUC(0-t) at 4 h [12]: 309 ng·h/mL
pIC50 [13]: 4.79
pIC50 [14]: 3.92
remaining at 1 h, 1 µM [15]: 71.1%
remaining at 1 h, 1 µM [17]: 97.2%
remaining at 1 h, 1 µM [18]: 43.1%
Tmax [22]: 15 min
clearance [23]: 93.7 mL/min/kg
Cmax [25]: 813 ng/mL
pIC50 [26]: 4.59
AUC(0-inf) [27]: 890 ng·h/mL
inhibition [29]: Dose-dependent effect
pIC50 [30]: 6.10
inhibition [31]: Dose-dependent effect
Compound: O=C(CCC1=CCN(CCCc2ccc3ccccc3c2)C1=O)NO
GI50 [2]: 0.65 µM
GI50 [10]: 0.78 µM
Activity [16]: 34.4%
GI50 [3]: 0.65 µM
GI50 [19]: 0.61 µM
Activity [20]: Non-toxic
GI50 [21]: 0.82 µM
Activity [24]: 242.2 mm3
GI50 [4]: 1.09 µM
GI50 [28]: 0.61 µM

pIC50 [1]: 6.17
Compound: O=C(CCC1=CCCN(Cc2ccccc2)C1=O)NO
GI50 [2]: 30 µM
GI50 [10]: 30 µM
GI50 [3]: 4.26 µM
GI50 [19]: 30 µM
GI50 [21]: 30 µM
GI50 [4]: 30 µM

pIC50 [1]: 7.30
remaining at 1 h, 1 µM [15]: 46.6%
remaining at 1 h, 1 µM [18]: 29.7%
Compound: O=C(CCC1=CCN(CCc2ccc3ccccc3c2)C1=O)NO
GI50 [2]: 0.63 µM
GI50 [10]: 0.84 µM
GI50 [3]: 0.59 µM
GI50 [19]: 0.5 µM
GI50 [21]: 0.61 µM
GI50 [4]: 0.34 µM
GI50 [28]: 0.8 µM

pIC50 [1]: 6.49
Compound: O=C(CCC1=CCCN(CCc2cccc3ccccc23)C1=O)NO

pIC50 [1]: 4.52
Compound: O=C(CCC1=CCCN(Cc2ccc3ccccc3c2)C1=O)NO
GI50 [2]: 6.09 µM
GI50 [10]: 6.82 µM
GI50 [3]: 4.07 µM
GI50 [19]: 30 µM
GI50 [21]: 30 µM
GI50 [4]: 30 µM

pIC50 [1]: 7.30
Papp [9]: 9.5 ×10⁻⁶ cm/s
remaining at 1 h, 1 µM [15]: 66.3%
remaining at 1 h, 1 µM [18]: 66.6%
Compound: O=C(CCC1=CCN(CCCc2ccccc2)C1=O)NO
GI50 [2]: 4.24 µM
GI50 [10]: 6.23 µM
GI50 [3]: 3.81 µM
GI50 [19]: 3.46 µM
GI50 [21]: 4.52 µM
GI50 [4]: 3.91 µM
GI50 [28]: 2.6 µM
